Patent publication US20250144067A1, “PERSONALIZED STARVATION THERAPY FOR CANCER” (Faeth Therapeutics, Inc., priority 2021, published 2025)

Legend:
[1] = test system: NCI-H292 lung cancer cells; assay: FDA drug screening, complete media vs cholesterol-free media with simvastatin (TABLE 2); assay type: cell-based, human; settings: for Cholesterol-free media + simvastatin (0.04 μM) / Complete Media: NCI-H292 cells
[2] = test system: NCI-H292 lung cancer cells; assay: FDA drug screening, complete media vs cholesterol-free media without statin (TABLE 1); assay type: cell-based, human
[3] = FDA drug library screen, cholesterol-free media with simvastatin 0.04 μM
[4] = FDA drug library screen, complete media
[5] = complete media vs cholesterol-free media + simvastatin (0.04 μM), >0 enhanced anti-cancer activity, about 0 neutral, <0 antagonist
[6] = NCI-H292 cells, cholesterol-free media without statin
[7] = complete vs cholesterol-free media, greater than 0 enhanced anti-cancer activity, about 0 neutral, below 0 antagonists
[8] = FDA library drug in cholesterol-free media with simvastatin 0.04 μM
[9] = FDA library drug in complete media
[10] = cholesterol-free media with simvastatin 0.04 μM, cell growth value in FDA drug screen
[11] = complete media, cell growth value in FDA drug screen
[12] = complete media minus cholesterol-free media + simvastatin, >0 enhanced anti-cancer activity, about 0 neutral, <0 antagonist
[13] = NCI-H292 cells, cholesterol-free media without statin, FDA drug library screen
[14] = NCI-H292 cells, complete media, FDA drug library screen
[15] = complete vs cholesterol-free media, >0 enhanced anti-cancer activity, about 0 neutral, <0 antagonist
[16] = Complete minus Cholesterol-free, >0 enhanced anti-cancer activity, about 0 neutral, <0 antagonist
[17] = drug in cholesterol-free media with simvastatin 0.04 μM
[18] = cholesterol-free media with simvastatin 0.04 μM, FDA drug library screen (TABLE 2)
[19] = complete media, FDA drug library screen (TABLE 2)
[20] = Complete minus Cholesterol-free, greater than 0 enhanced anti-cancer activity, about 0 neutral, below 0 antagonists
[21] = NCI-H292 cells in cholesterol-free media without statin
[22] = NCI-H292 cells in complete media
[23] = Complete minus Cholesterol-free, greater than 0 enhanced anti-cancer activity, about 0 neutral, below 0 antagonist
[24] = NCI-H292 cells, FDA drug library screen, cholesterol-free media without statin
[25] = NCI-H292 cells, FDA drug library screen, complete media

Row | SMILES | Difference [1, 5] | Cholesterol-free [2, 6] | Complete ([2]; NCI-H292 cells, complete media) | Cholesterol-free [2, 13] | Complete [2, 14] | Difference [2, 16] | Cholesterol-free media + simvastatin (0.04 μM) [1, 17] | Complete Media ([1]; drug in complete media) | also measured
1 | CC(=O)OCC(=O)NCCCOc1cccc(CN2CCCCC2)c1.Cl [Roxatidine (Acetate Hydrochloride)] | −0.11 | 1.511 | 1.141 | – | – | – | – | – | Cholesterol-free media + simvastatin (0.04 μM) [1, 3]: 1.117; Complete Media [1, 4]: 1.004; Difference [2, 7]: −0.37
2 | CC(C)C[C@H](NC(=O)[C@@H](O)[C@H](N)Cc1ccccc1)C(=O)O [Bestatin] | −0.27 | 1.255 | 0.8191 | – | – | – | – | – | Cholesterol-free media + simvastatin (0.04 μM) [1, 8]: 1.263; Complete Media [1, 9]: 0.9917; Difference [2, 7]: −0.44
3 | Nc1nc(=O)n([C@@H]2CS[C@H](CO)O2)cc1F [Emtricitabine] | – | – | – | 0.9457 | 1.235 | – | – | – | Cholesterol-free media + simvastatin (0.04 μM) [1, 10]: 1.347; Complete Media [1, 11]: 1.442; Difference [1, 12]: 0.09; Difference [2, 15]: 0.29
4 | CC(/C=C1\SC(=S)N(CC(=O)O)C1=O)=C\c1ccccc1 [Epalrestat] | −0.14 | 1.235 | 0.9425 | – | – | −0.29 | – | – | Cholesterol-free media + simvastatin (0.04 μM) [1, 3]: 0.9966; Complete Media [1, 4]: 0.8579
5 | C[C@@H](c1ncncc1F)[C@](O)(Cn1cncn1)c1ccc(F)cc1F [Voriconazole] | −0.22 | – | – | 0.6824 | 0.9897 | – | 1.08 | 0.8559 | Difference [2, 15]: 0.31
6 | COc1ccc(/C=C/C(=O)Nc2ccccc2C(=O)O)cc1OC [Tranilast] | −0.18 | 0.8255 | 0.5543 | – | – | −0.27 | 1.221 | 1.04 | –
7 | Nc1ccn([C@@H]2O[C@H](CO)[C@@H](O)C2(F)F)c(=O)n1 [Gemcitabine] | – | – | – | 0.04572 | 0.01326 | −0.03 | – | – | Cholesterol-free media + simvastatin (0.04 μM) [1, 18]: 0.08143; Complete Media [1, 19]: 0.09095; Difference ([1]; complete media minus cholesterol-free media + simvastatin (0.04 μM), >0 enhanced anti-cancer activity, about 0 neutral, <0 antagonist): 0.01
8 | CC(C)=CCC/C(C)=C/CC/C(C)=C/CC/C(C)=C/CC1=C(C)C(=O)c2ccccc2C1=O [Menaquinone-4] | −0.32 | 1.129 | 0.777 | – | – | – | – | – | Cholesterol-free media + simvastatin (0.04 μM) [1, 8]: 1.094; Complete Media [1, 9]: 0.773; Difference [2, 7]: −0.35
9 | Clc1ccccc1C(c1ccccc1)(c1ccccc1)n1ccnc1 [Clotrimazole] | – | – | – | – | – | – | – | – | Cholesterol-free media + simvastatin (0.04 μM) [1, 3]: 0.4166; Complete Media [1, 4]: 0.8582; Difference [1, 12]: 0.44; Difference [2, 20]: −0.77; Cholesterol-free [2, 21]: 1.485; Complete [2, 22]: 0.7188
10 | CCC(CC)O[C@@H]1C=C(C(=O)O)C[C@H](N)[C@H]1NC(C)=O [Oseltamivir acid] | – | 1.419 | 0.9754 | – | – | – | – | – | Cholesterol-free media + simvastatin (0.04 μM) [1, 10]: 0.944; Complete Media [1, 11]: 1.053; Difference [1, 12]: 0.11; Difference [2, 7]: −0.44
11 | Nc1nc(/C(=C/CC(=O)O)C(=O)N[C@@H]2C(=O)N3C(C(=O)O)=CCS[C@H]23)cs1 [Ceftibuten (dihydrate)] | −0.16 | – | – | 0.6461 | 1.242 | – | – | – | Cholesterol-free media + simvastatin (0.04 μM) [1, 3]: 1.353; Complete Media [1, 4]: 1.195; Difference [2, 15]: 0.60
12 | C=C1[C@H](CO)[C@@H](O)C[C@@H]1n1cnc2c(=O)[nH]c(N)nc21 [Entecavir (monohydrate)] | −0.20 | – | – | – | – | – | 1.17 | 0.9716 | Difference [2, 20]: −0.52; Cholesterol-free [2, 21]: 1.519; Complete [2, 22]: 1
13 | Cc1ccccc1C(=O)Nc1ccc(C(=O)N2CCCC(N(C)C)c3ccccc32)cc1 (stereo not drawn) [Mozavaptan] | −0.28 | 0.8282 | 0.6332 | – | – | −0.20 | – | – | Cholesterol-free media + simvastatin (0.04 μM) [1, 8]: 1.121; Complete Media [1, 9]: 0.8375
14 | Cc1cc(C)c(NC(=O)CN(CC(=O)O)CC(=O)O)c(C)c1Br [Mebrofenin] | −0.33 | – | – | – | – | – | – | – | Cholesterol-free media + simvastatin (0.04 μM) [1, 8]: 1.2; Complete Media [1, 9]: 0.8726; Difference [2, 23]: −0.13; Cholesterol-free [2, 24]: 1.088; Complete [2, 25]: 0.9614
15 | CC[C@H](C)[C@H](NC(=O)[C@H](CCC(=O)O)NC(=O)[C@H](CO)NC(=O)[C@@H](NC(=O)[C@@H](N)CO)C(C)C)C(=O)N[C@@H](CCC(N)=O)C(=O)N[C@@H](CC(C)C)C(=O)N[C@@H](CCSC)C(=O)N[C@@H](Cc1cnc[nH]1)C(=O)N[C@@H](CC(N)=O)C(=O)N[C@@H](CC(C)C)C(=O)NCC(=O)N[C@@H](CCCCN)C(=O)N[C@@H](Cc1cnc[nH]1)C(=O)N[C@@H](CC(C)C)C(=O)N[C@@H](CC(N)=O)C(=O)N[C@@H](CO)C(=O)N[C@@H](CCSC)C(=O)N[C@@H](CCC(=O)O)C(=O)N[C@@H](CCCN=C(N)N)C(=O)N[C@H](C(=O)N[C@@H](CCC(=O)O)C(=O)N[C@@H](Cc1c[nH]c2ccccc12)C(=O)N[C@@H](CC(C)C)C(=O)N[C@@H](CCCN=C(N)N)C(=O)N[C@@H](CCCCN)C(=O)N[C@@H](CCCCN)C(=O)N[C@@H](CC(C)C)C(=O)N[C@@H](CCC(N)=O)C(=O)N[C@@H](CC(=O)O)C(=O)N[C@H](C(=O)N[C@@H](Cc1cnc[nH]1)C(=O)N[C@@H](CC(N)=O)C(=O)N[C@@H](Cc1ccccc1)C(=O)O)C(C)C)C(C)C [Teriparatide] | – | – | – | – | – | – | – | – | Cholesterol-free media + simvastatin (0.04 μM) [1, 18]: 1.048; Complete Media [1, 19]: 1.02; Difference ([1]; complete media minus cholesterol-free media + simvastatin (0.04 μM), […]): −0.03; Difference ([2]; Complete minus Cholesterol-free, […]): −0.19; Cholesterol-free [2, 24]: 1.061; Complete [2, 25]: 0.8757
16 | CC(C)(C)CC(C)(C)c1ccc(O)c(Cc2ccc(Cl)cc2Cl)c1 [Clofoctol] | – | – | – | – | – | – | – | – | Cholesterol-free media + simvastatin (0.04 μM) [1, 3]: 1.057; Complete Media [1, 4]: 1.232; Difference [1, 12]: 0.17; Difference [2, 20]: −0.85; Cholesterol-free [2, 21]: 1.815; Complete [2, 22]: 0.9672
17 | C[C@]12C=CC(=O)C=C1CC[C@@H]1[C@@H]2[C@@H](O)C[C@@]2(C)[C@H]1CC[C@]2(O)C(=O)CO [Prednisolone] | −0.20 | – | – | 0.4941 | 0.4768 | −0.02 | 0.6412 | 0.4437 | –
18 | CNCCc1ccccn1 [Betahistine] | −0.20 | – | – | – | – | – | 1.266 | 1.062 | Difference [2, 23]: −0.10; Cholesterol-free [2, 24]: 1.192; Complete [2, 25]: 1.087
19 | CCCCCCCC(=O)N[C@H](CN1CCCC1)[C@H](O)c1ccc2c(c1)OCCO2 [Eliglustat] | −0.45 | 1.155 | 0.8552 | – | – | −0.30 | – | – | Cholesterol-free media + simvastatin (0.04 μM) [1, 8]: 1.086; Complete Media [1, 9]: 0.6384
20 | CN(C)c1nc(N(C)C)nc(N(C)C)n1 [Altretamine] | −0.17 | – | – | 0.9853 | 0.9434 | −0.04 | 1.135 | 0.9636 | –
